Assay results published in US11542265B2, “Pyrazolopyrimidine compounds and uses thereof” (Incyte Corporation, priority 2016, dated 2023).

These compounds were tested against HPK1 (Homo sapiens, UniProt Q92918) (assay: HPK1 Kinase Binding Assay). Settings: LanthaScreen tracer 222, Eu-Anti GST antibody, active HPK1, one hour incubation at 25° C.
Description: A stock solution of 1 mM test compound was prepared in DMSO. The compound plate was prepared by 3-fold and 11-point serial dilutions. 0.1 μL of the compound in DMSO was transferred from the compound plate to the white 384 well polystyrene plates. The assay buffer contained 50 mM HEPES, pH 7.5, 0.01% Tween-20, 5 mM MgCl2, 0.01% BSA, and 5 mM DTT. 5 μl of 4 nM active HPK1 (SignalChem M23-11G) prepared in the buffer was added to the plate. The enzyme concentration given was based on the given stock concentration reported by the vender. 5 μl of 18 nM tracer 222 (ThermoFisher PV6121) and 4 nM LanthaScreen Eu-Anti GST antibody (ThermoFisher PV5595) were added. After one hour incubation at 25° C., the plates were read on a PHERAstar FS plate reader (BMG Labtech). Ki values were determined.

HPK1, sequence (Q92918 whole entry, looked up): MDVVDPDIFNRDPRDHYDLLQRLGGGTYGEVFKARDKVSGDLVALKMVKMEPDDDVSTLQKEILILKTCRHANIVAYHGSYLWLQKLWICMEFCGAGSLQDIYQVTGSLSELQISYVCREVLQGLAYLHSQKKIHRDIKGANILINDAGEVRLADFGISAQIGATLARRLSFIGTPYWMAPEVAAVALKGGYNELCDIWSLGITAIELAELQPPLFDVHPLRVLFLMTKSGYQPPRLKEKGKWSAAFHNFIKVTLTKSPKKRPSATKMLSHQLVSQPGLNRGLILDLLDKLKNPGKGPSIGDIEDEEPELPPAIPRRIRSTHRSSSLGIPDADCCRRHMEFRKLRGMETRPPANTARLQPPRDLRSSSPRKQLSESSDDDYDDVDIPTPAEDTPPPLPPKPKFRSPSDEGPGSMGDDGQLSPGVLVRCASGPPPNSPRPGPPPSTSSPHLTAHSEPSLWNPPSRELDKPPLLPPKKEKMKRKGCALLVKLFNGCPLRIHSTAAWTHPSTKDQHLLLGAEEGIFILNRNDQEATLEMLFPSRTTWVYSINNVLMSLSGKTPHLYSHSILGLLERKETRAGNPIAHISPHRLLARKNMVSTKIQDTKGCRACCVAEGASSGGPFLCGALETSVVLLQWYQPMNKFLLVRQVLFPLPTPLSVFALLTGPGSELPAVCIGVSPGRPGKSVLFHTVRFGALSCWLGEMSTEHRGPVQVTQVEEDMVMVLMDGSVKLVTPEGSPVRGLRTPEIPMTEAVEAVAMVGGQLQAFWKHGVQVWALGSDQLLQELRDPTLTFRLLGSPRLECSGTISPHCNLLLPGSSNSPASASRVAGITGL

Ki [nM] | Structure (SMILES)
≤ 100 | CNCc1cc(F)c(-c2ncc3[nH]nc(-c4ccc(N5CCCCC5)nc4)c3n2)c(C(F)(F)F)c1 [Example 76, 1-(3-Fluoro-4-(3-(6-(piperidin-1-yl)pyridin-3-yl)-1H-pyrazolo[4,3-d]pyrimidin-5-yl)-5-(trifluoromethyl)phenyl)-N-methylmethanamine]
≤ 100 | CN1CCN(c2ncc(-c3n[nH]c4cnc(-c5c(F)cc(CC#N)cc5F)nc34)cn2)CC1 [Example 105, 2-(3,5-Difluoro-4-(3-(2-(4-methylpiperazin-1-yl)pyrimidin-5-yl)-1H-pyrazolo[4,3-d]pyrimidin-5-yl)phenyl)acetonitrile]
≤ 100 | CNCc1cc(F)c(-c2ncc3[nH]nc(-c4ccc(NC5CCN(S(C)(=O)=O)CC5)cc4)c3n2)c(F)c1 [Example 72, 7V-(4-(5-(2,6-Difluoro-4-((methylamino)methyl)phenyl)-1H-pyrazolo[4,3-d]pyrimidin-3-yl)phenyl)-1-(methylsulfonyl)piperidin-4-amine]
